According to US20240053326A1, “TESTING COLON CANCER DRUGS FOR IMMUNOMODULATORY EFFECTS” (BROWN UNIVERSITY, priority 2022, published 2024):

Test system: HCT-116, HT-29, and KM12C colon cancer cell lines
Test: Cytokinome (cytokine, chemokine, growth factor) profiling of cell culture supernatant after small-molecule treatment, Luminex 200
Assay type: cell-based, human
Details: for decreases in VEGF: 48 h treatment at IC-10 to IC-90, slope of linear regression, count of drug/cell line groups (HCT-116, HT-29, KM12C) with analyte among top five most down-regulated
Method: We designed a high-throughput custom multiplex cytokine, chemokine, and growth factor profiling panel based on both pro- and anti-inflammatory markers, as well as cytokines and chemokines involved in the recruitment and activation of immune cells such as natural killer (NK) and T cells. Cell lines were treated with the drug panel and cell culture supernatants were analyzed using Luminex 200 technology (FIG. 2). Cell lines were treated at differing concentrations (IC-10, IC-30, IC-50, IC-70, and IC-90) to determine dose-response effects for each small-molecule. It is important to emphasize that the panel was designed to analyze soluble factors that are secreted or shed by tumor cells post-treatment with drug.
Cells were plated at 3.5×10^4 cells in a 48 well plate (Thermo Fisher Scientific, Waltham, MA, USA) in complete medium and incubated at 37° C. with 5% CO2. At 24 hours after plating, almost all the tumor cells were adherent to the bottom of the flask and the complete medium was replaced with drug-containing medium. Subsequently, the culture supernatants were collected after 48 hours of incubation and were frozen at −80° C. until the measurement of cytokines was performed. The day of analysis, samples were thawed and centrifuged to remove cellular debris.
An R&D systems Human Premixed Multi-Analyte Kit (R&D Systems, Inc., Minneapolis, MN) was run on a Luminex 200 Instrument (LX200-XPON-RUO, Luminex Corporation, Austin, TX) according to the manufacturer's instructions. Cell culture supernatant levels of TNF-alpha, IL-6, IL-8/CXCL8, Ferritin, IFN-beta, IL-10, CCL2/JE/MCP-1, VEGF, CXCL13/BLC/BCA-1, IFN-gamma, CCL20/MIP-3 alpha, CCL3/MIP-1 alpha, CCL22/MDC, CCL4/MIP-1 beta, IL-4, IL-17/IL-17a, TRAIL R2/TNFRSF10B, GM-CSF, CXCL5/ENA-78, CXCL9/MIG, G-CSF, CXCL11/I-TAC, Granzyme B, CCL5/RANTES, Prolactin, IFN-alpha, CXCL14/BRAK, IL-12/IL-23 p40, CXCL10/IP-10/CRG2, CCL7/MCP-3/MARC, IL-7, CCL8/MCP-2, TRANCE/TNFSF11/RANK L, IL-15, TRAIL R3/TNFRSF10C, CCL11/Eotaxin, IL-18/IL-1F4, TRAIL/TNFSF10, IL-21, and C-Reactive Protein/CRP were measured.
A quantitative analysis with 6 standards and a minimum of 50 counts per bead region was used with the Luminex to generate analyte values reported as picograms/milliliter (pg/mL). Cytokine concentrations less than the lower limit of detection for each particular cytokine were recoded as zero. Cytokines without detectable expression levels were removed from further analysis of each cell line. Each drug was tested at different inhibitory concentrations (IC-10, IC-30, IC-50, IC-70, and IC-90), and these varying concentrations were used to measure a dose-response effect on cytokine expression. Cytokine dose-response effect was modeled by simple linear regression for each drug. The slopes of the linear regressions were compared. Data analysis and visualization were generated using R (R Development Core Team, 2020).

[1] = 48 h, IC-10 to IC-90, regression slope, count of drug/cell line groups, top five most down-regulated
[2] = 48 h, IC-10 to IC-90, regression slope, count of drug/cell line groups, top five most up-regulated

For Cn1cc(C2=C(c3coc4ccc(F)cc34)C(=O)NC2=O)c2cc3c(cc21)OCO3 [9-ING-41], the “decreases in CCL3/MIP-1 alpha” value [1] was 2 out of 3, the “decreases in CXCL9/MIG” value [1] was 3 out of 3 and the “increases in CXCL14/BRAK” value [2] was 3 out of 3. The “increases in IL-8/CXCL8” value [2] was 2 out of 3, the “increases in sTRAIL-R3” value [2] was 2 out of 3 and the “decreases in VEGF” value was 3 out of 3.
In the case of C[C@@H](Oc1cc(-c2cnn(C3CCNCC3)c2)cnc1N)c1c(Cl)ccc(F)c1Cl [Crizotinib], the “decreases in CXCL9/MIG” value [1] is reported as 2 out of 3, the “decreases in CXCL13/BLC/BCA-1” value [1] is reported as 2 out of 3 and the “increases in CXCL14/BRAK” value [2] is reported as 2 out of 3. The “increases in IL-8/CXCL8” value [2] was 2 out of 3, the “increases in Prolactin” value [2] was 2 out of 3 and the “decreases in VEGF” value was 3 out of 3.
In the case of O=C(Nc1cnn2ccc(N3CCC[C@@H]3c3cc(F)ccc3F)nc12)N1CC[C@H](O)C1 [Larotrectinib], the “decreases in CCL3/MIP-1 alpha” value [1] is reported as 2 out of 3, the “decreases in CXCL9/MIG” value [1] is reported as 3 out of 3 and the “decreases in IL-8/CXCL8” value [1] is reported as 2 out of 3. The “increases in CCL5/RANTES” value [2] was 2 out of 3, the “increases in IL-18/IL-1F4” value [2] was 2 out of 3 and the “increases in Prolactin” value [2] was 2 out of 3. For the same compound, the “decreases in VEGF” value was 3 out of 3.
CNC(=O)c1cc(Oc2ccc(NC(=O)Nc3ccc(Cl)c(C(F)(F)F)c3)c(F)c2)ccn1 [Regorafenib] was tested, and the “decreases in CCL3/MIP-1 alpha” value [1] was 2 out of 3, the “decreases in CXCL5/ENA-78” value [1] was 2 out of 3 and the “decreases in CXCL9/MIG” value [1] was 3 out of 3. For the same compound, the “decreases in IL-8/CXCL8” value [1] was 3 out of 3, the “increases in CXCL14/BRAK” value [2] was 2 out of 3 and the “increases in Prolactin” value [2] was 2 out of 3. For the same compound, the “decreases in VEGF” value was 3 out of 3.
With COc1ccc(CN2C3CC2CN(c2ccc(-c4cc(OCC(C)(C)O)cn5ncc(C#N)c45)cn2)C3)cn1 [Selpercatinib] the “decreases in CCL3/MIP-1 alpha” value [1] was 2 out of 3, the “decreases in CXCL14/BRAK” value [1] was 2 out of 3 and the “increases in CXCL5/ENA-78” value [2] was 3 out of 3. For the same compound, the “increases in IL-8/CXCL8” value [2] was 2 out of 3, the “increases in Prolactin” value [2] was 2 out of 3 and the “decreases in VEGF” value was 3 out of 3.
